Here are results for 1 molecule from the NIST ThermoML archive (doi:10.1021/je0505265).

Numbers after ± are expanded uncertainties.

For this series the following is noted: Crystal; DTA.

In the case of `CC[C@H]1OC(=O)[C@H](C)[C@@H](O[C@H]2C[C@@](C)(OC)[C@@H](O)[C@H](C)O2)[C@H](C)[C@@H](O[C@@H]2O[C@H](C)C[C@H](N(C)C)[C@H]2O)[C@](C)(O)C[C@@H](C)C(=O)[C@H](C)[C@@H](O)[C@]1(C)O.O.O` [erythromycin A dihydrate], the Normal melting temperature came to 137.7 ± 0.5 °C.
